“Also recorded” adds a separate entry of the source.
How the values were obtained:
[1] = tested on: lung cancer cell line (H2170); assay: H2170 cells treated with paclitaxel, ABCB1 transporter amplified ecDNA (FISH, qPCR); assay type: cell-based
Procedure: The lung cancer cell line (H2170) was assessed for the presence of oncogene-amplified ecDNA. […] The cell line was treated with paclitaxel and the presence and level of ecDNA was assessed for ABCB1 transporter amplified ecDNA. […] Gene copy number for the ABCB1 transporter was assessed by qPCR.

[2] = tested on: colorectal cancer line COLO320 HSR; assay: COLO320 HSR cells treated with paclitaxel, ecDNA by metaphase FISH and PCR gene panel
gastric cancer CDX model = assay: gastric cancer CDX model, 7-day multi-dosing experiment; assay type: in vivo, mice
Procedure: The ecDTx agent was further tested in the gastric cancer CDX model in a 7-day multi-dosing experiment. Mice were treated with vehicle only (PO; QDx 7 days), with infigratinib alone (15 mg/kg PO;QD x 7 days), the ecDTx CHK1 inhibitor (20 mg/kg SC;Q2D x 4 doses) or with a combination of infigratinib and the ecDTx CHK1 inhibitor (same dosing as with individual agents).
Tumor volume at day 6 is shown in the box and whisker graph in FIG. 4B. […] Copy number for MYC and FGFR2 was evaluated in the tumors from the treated mice. […] This increase was abrogated in the presence of the ecDTx agent. MYC and FGFR2 expression was also evaluated in the tumors of the treated mice (FIG. 4D).

[3] = tested on: gastric cancer cell line SNU16; assay: SNU16 cells treated with infigratinib over about 80 days; relative copy number by metaphase DAPI/FISH; assay type: cell-based
Procedure: A gastric cancer cell line SNU16 was assessed for the presence of ecDNA using metaphase DAPI/FISH using probes to detect MYC, FGFR2 and EGFR. […] SNU16 cells were then treated with the FGFR inhibitor infigratinib over the course of about 80 days. ecDNA was assessed by metaphase DAPI/FISH and relative copy number for MYC, FGFR2 and EGFR was tracked at day 0 and 5 additional time points.

[4] = tested on: gastric cancer CDX SNU16 mouse model; assay: gastric cancer CDX SNU16 mouse model, tumor growth over 50 days and copy number in tumors; assay type: in vivo, mice
Procedure: To assess the effect of an ecDTx agent on gastric cancer and ecDNA development, a gastric cancer CDX SNU16 mouse model was treated with vehicle only, with infigratinib alone (15 mg/kg PO;QD), the ecDTx CHK1 inhibitor (20 mg/kg SQ;Q2D) or with a combination of infigratinib (15 mg/kg PO;QD) and the ecDTx CHK1 inhibitor (20 mg/kg SQ;Q2D). Tumor growth in the animals was monitored over 50 days. […] The effect of the combination was further assessed by evaluating copy number for MYC and FGFR2 in the tumors from the treated mice. […] FGFR2 amplification was abrogated in the presence of the ecDTx agent alone or when used in combination with infigratinib. The presence of the FGRF2 and MYC amplification on ecDNA was validated by FISH (FIG. 3C).

[5] = tested on: Glioblastoma cell line (GBM39); assay: GBM39 cells treated with erlotinib, FISH for MYC amplification; assay type: cell-based; conditions: erlotinib 1 uM, 4 weeks, vs control cells
Procedure: Glioblastoma cell line (GBM39) was assessed for ecDNA in untreated samples and cells treated with the EGFR inhibitor erlotinib (1 uM). Cells were treated for 4 weeks and then assessed by FISH for amplification of MYC ecDNA. […] Cells treated with the erlotinib developed brightly staining MYC amplification on ecDNA. Amplification of MYC on ecDNA and on HSR was quantified from the FISH images in control and treated cells.

[6] = tumors from treated mice, 50-day study

CC(=O)O[C@H]1C(=O)[C@@]2(C)[C@H]([C@H](OC(=O)c3ccccc3)[C@]3(O)C[C@H](OC(=O)[C@H](O)[C@@H](NC(=O)c4ccccc4)c4ccccc4)C(C)=C1C3(C)C)[C@]1(OC(C)=O)CO[C@@H]1C[C@@H]2O [paclitaxel]
copy number of the ABCB1 transporter amplified ecDNA ([1]; FISH, vs untreated controls): marked increase
gene copy number for the ABCB1 transporter ([1]; qPCR, vs untreated control): dramatically higher; also recorded: significant increase
amplification of various genes ([2]; PCR with a panel of genes, paclitaxel-treated cells): highest amount of amplification was seen with ABCB1
copy number of ecDNA harboring the ABCB1 drug efflux pump ([2]; paclitaxel resistant cells, metaphase FISH): high copy number

CCN1CCN(c2ccc(Nc3cc(N(C)C(=O)Nc4c(Cl)c(OC)cc(OC)c4Cl)ncn3)cc2)CC1 [infigratinib]
FGFR2 expression in the tumors (gastric cancer CDX model): markedly increased
MYC expression in the tumors (gastric cancer CDX model): similar
copy number of FGFR2 in the tumors (gastric cancer CDX model): dramatically higher than the other groups
copy number of MYC in the tumors (gastric cancer CDX model): relatively similar
copy number of FGFR2 ([3]; after about 10 days of treatment): reduced dramatically
copy number of EGFR ([3]; treatment over about 80 days): rapidly increased
copy number of MYC ([3]; treatment over about 80 days): rapidly increased
tumor growth ([4]; compared to vehicle, over 50 days, infigratinib 15 mg/kg PO QD, ecDTx CHK1 inhibitor 20 mg/kg SQ Q2D): decreased tumor growth
trend at the later time points (resistance) ([4]; later time points of 50 days, infigratinib 15 mg/kg PO QD): suggested resistance was beginning to develop
copy number of FGFR2 in the tumors [4, 6]: dramatically higher than the other groups
copy number of MYC in the tumors [4, 6]: relatively similar

C#Cc1cccc(Nc2ncnc3cc(OCCOC)c(OCCOC)cc23)c1 [erlotinib]
MYC amplification on HSR [5]: did not show any significant difference
MYC amplification on ecDNA [5]: dramatic increase; also recorded: significant increase

Reference: patent US20230272485A1, “REPLICATION STRESS PATHWAY AGENT COMPOSITIONS AND METHODS FOR TREATING CANCER” (Boundless Bio, Inc., priority 2022, published 2023)
